# Test results as given in ChEMBL document CHEMBL2380271, “Synthesis and biological evaluation of a class of quinolone triazoles as potential antimicrobial agents and their interactions with calf thymus DNA” (2013).
# Activity calls are given as the source filed them. The rule behind the calls is not given here.
# How the values were obtained:
# [1] = tested on: Escherichia coli; experiment: Antibacterial activity against Escherichia coli DH52 by NCCLS method; format: functional
# [2] = tested on: Salmonella typhi; experiment: Antibacterial activity against Eberthella typhosa by NCCLS method; format: functional, Salmonella enterica subsp. enterica serovar Typhi; conditions: Salmonella enterica
# [3] = tested on: Candida albicans; experiment: Antifungal activity against Candida albicans by NCCLS method; format: functional
# [4] = tested on: Shigella dysenteriae; experiment: Antibacterial activity against Shigella dysenteriae by NCCLS method; format: functional
# [5] = tested on: Staphylococcus aureus; experiment: Antibacterial activity against methicillin-resistant Staphylococcus aureus N315 by NCCLS method; format: functional
# [6] = tested on: Saccharomyces cerevisiae; experiment: Antifungal activity against Saccharomyces cerevisiae by NCCLS method; format: functional
# [7] = tested on: Pseudomonas aeruginosa; experiment: Antibacterial activity against Pseudomonas aeruginosa by NCCLS method; format: functional
# [8] = tested on: Staphylococcus aureus; experiment: Antibacterial activity against Staphylococcus aureus ATCC 25923 by NCCLS method; format: functional
# [9] = tested on: Cyberlindnera jadinii; experiment: Antifungal activity against Candida utilis by NCCLS method; format: functional; conditions: Williopsis jadinii
# [10] = tested on: Micrococcus luteus; experiment: Antibacterial activity against Micrococcus luteus ATCC 4698 by NCCLS method; format: functional
# [11] = tested on: Aspergillus flavus; experiment: Antifungal activity against Aspergillus flavus by NCCLS method; format: functional
# [12] = tested on: DNA; experiment: Binding affinity to calf thymus DNA-NR complex assessed as increase in fluorescence intensity at 726 nm wavelength; format: nucleic-acid assay; conditions: Bos taurus
# [13] = tested on: DNA; experiment: Binding affinity to calf thymus DNA assessed as blue shift by UV-vis spectroscopic analysis; format: nucleic-acid assay; conditions: Bos taurus
# [14] = tested on: DNA; experiment: Binding affinity to calf thymus DNA by fluorescence quenching assay in presence of potassium iodide; format: nucleic-acid assay; conditions: Bos taurus
# [15] = tested on: DNA; experiment: Binding affinity to calf thymus DNA at 0.5 to 3x10'-5 mol/L by fluorescence quenching assay; format: nucleic-acid assay; conditions: Bos taurus
# [16] = tested on: DNA; experiment: Competitive binding affinity to calf thymus DNA by UV-vis spectroscopic analysis in presence of neutral red; format: nucleic-acid assay; conditions: Bos taurus
# [17] = tested on: DNA; experiment: Binding affinity to calf thymus DNA-NR complex assessed as decrease in fluorescence intensity at 640 nm wavelength; format: nucleic-acid assay; conditions: Bos taurus
# [18] = tested on: Staphylococcus aureus; experiment: Ratio of chloromycin MIC to compound MIC for methicillin-resistant Staphylococcus aureus N315; format: functional
# [19] = tested on: Staphylococcus aureus; experiment: Ratio of norfloxacin MIC to compound MIC for methicillin-resistant Staphylococcus aureus N315; format: functional
# [20] = tested on: Aspergillus flavus; experiment: Ratio of Fluconazole MIC to compound MIC for Aspergillus flavus; format: functional
SMILES,MIC [1],MIC [2],MIC [3],MIC [4],MIC [5],MIC [6],MIC [7],MIC [8],MIC [9],MIC [10],MIC [11],Activity [12],K [13],KSV [14],Activity [15],Activity [16],Activity [17],Ratio [18],Ratio [19],Ratio [20]
O=C(O)c1cn(CC(O)Cn2cncn2)c2c(F)cc(F)cc2c1=O (configuration not stated),2 µg/mL,1 µg/mL,8 µg/mL,16 µg/mL,8 µg/mL,512 µg/mL,2 µg/mL,2 µg/mL,> 512 µg/mL,2 µg/mL,256 µg/mL,–,–,–,–,–,–,–,–,–
Cc1ccc2c(c1)c(=O)c(C(=O)O)cn2CC(O)Cn1cncn1 (configuration not stated),32 µg/mL,8 µg/mL,2 µg/mL,32 µg/mL,8 µg/mL,4 µg/mL,16 µg/mL,32 µg/mL,> 512 µg/mL,16 µg/mL,0.5 µg/mL,Active,1.43 ×10³ L/mol,6.53 L/mol,Active,Active,Active,–,–,–
O=C(O)c1cn(CC(O)Cn2cncn2)c2ccc(F)cc2c1=O (configuration not stated),32 µg/mL,1 µg/mL,64 µg/mL,0.5 µg/mL,1 µg/mL,512 µg/mL,8 µg/mL,128 µg/mL,> 512 µg/mL,32 µg/mL,512 µg/mL,–,–,–,–,–,–,16,8,–
O=C(O)c1cn(CC(O)Cn2cncn2)c2cc(C(F)(F)F)ccc2c1=O (configuration not stated),8 µg/mL,4 µg/mL,1 µg/mL,1 µg/mL,1 µg/mL,256 µg/mL,8 µg/mL,1 µg/mL,> 512 µg/mL,2 µg/mL,512 µg/mL,–,–,–,–,–,–,16,8,–
O=C(O)c1cn(CC(O)Cn2cncn2)c2cc(Cl)c(F)cc2c1=O (configuration not stated),8 µg/mL,4 µg/mL,16 µg/mL,64 µg/mL,64 µg/mL,256 µg/mL,2 µg/mL,64 µg/mL,> 512 µg/mL,16 µg/mL,128 µg/mL,–,–,–,–,–,–,–,–,–
O=C(O)c1cn(CC(O)Cn2cncn2)c2c(Cl)cc(Cl)cc2c1=O (configuration not stated),64 µg/mL,16 µg/mL,32 µg/mL,4 µg/mL,4 µg/mL,128 µg/mL,8 µg/mL,64 µg/mL,> 512 µg/mL,64 µg/mL,256 µg/mL,–,–,–,–,–,–,–,–,–
O=C(O)c1cn(CC(O)Cn2cncn2)c2c(F)cccc2c1=O (configuration not stated),4 µg/mL,64 µg/mL,16 µg/mL,1 µg/mL,64 µg/mL,256 µg/mL,8 µg/mL,32 µg/mL,> 512 µg/mL,8 µg/mL,128 µg/mL,–,–,–,–,–,–,–,–,–
CCOC(=O)c1cn(CC(O)Cn2cncn2)c2cc(C(F)(F)F)ccc2c1=O (racemic),32 µg/mL,0.5 µg/mL,64 µg/mL,32 µg/mL,32 µg/mL,64 µg/mL,1 µg/mL,16 µg/mL,128 µg/mL,2 µg/mL,8 µg/mL,–,–,–,–,–,–,–,–,–
CCOC(=O)c1cn(CC(O)Cn2cncn2)c2cc(Cl)c(F)cc2c1=O (racemic),32 µg/mL,1 µg/mL,8 µg/mL,32 µg/mL,4 µg/mL,512 µg/mL,4 µg/mL,64 µg/mL,> 512 µg/mL,4 µg/mL,16 µg/mL,–,–,–,–,–,–,–,–,–
CCOC(=O)c1cn(CC(O)Cn2cncn2)c2c(Cl)cc(Cl)cc2c1=O (racemic),4 µg/mL,4 µg/mL,512 µg/mL,128 µg/mL,1 µg/mL,32 µg/mL,4 µg/mL,1 µg/mL,> 512 µg/mL,8 µg/mL,0.5 µg/mL,–,–,–,–,–,–,16,8,–
CCOC(=O)c1cn(CC(O)Cn2cncn2)c2c(F)cccc2c1=O (racemic),8 µg/mL,0.5 µg/mL,32 µg/mL,8 µg/mL,128 µg/mL,32 µg/mL,32 µg/mL,64 µg/mL,> 512 µg/mL,2 µg/mL,512 µg/mL,–,–,–,–,–,–,–,–,–
CCOC(=O)c1cn(CC2CO2)c2c(F)cc(F)cc2c1=O (racemic),128 µg/mL,2 µg/mL,4 µg/mL,> 512 µg/mL,8 µg/mL,64 µg/mL,64 µg/mL,16 µg/mL,> 512 µg/mL,2 µg/mL,1 µg/mL,–,–,–,–,–,–,–,–,256
CCOC(=O)c1cn(CC2CO2)c2ccc(C)cc2c1=O (racemic),128 µg/mL,2 µg/mL,2 µg/mL,128 µg/mL,16 µg/mL,64 µg/mL,32 µg/mL,256 µg/mL,256 µg/mL,32 µg/mL,16 µg/mL,–,–,–,–,–,–,–,–,–
CCOC(=O)c1cn(CC2CO2)c2ccc(F)cc2c1=O (racemic),64 µg/mL,8 µg/mL,16 µg/mL,64 µg/mL,4 µg/mL,2 µg/mL,128 µg/mL,32 µg/mL,256 µg/mL,512 µg/mL,1 µg/mL,–,–,–,–,–,–,–,–,256
CCOC(=O)c1cn(CC2CO2)c2cc(C(F)(F)F)ccc2c1=O (racemic),64 µg/mL,2 µg/mL,4 µg/mL,256 µg/mL,0.5 µg/mL,8 µg/mL,64 µg/mL,256 µg/mL,> 512 µg/mL,128 µg/mL,0.5 µg/mL,–,–,–,–,–,–,32,16,256
CCOC(=O)c1cn(CC2CO2)c2c(Cl)cc(Cl)cc2c1=O (racemic),32 µg/mL,2 µg/mL,2 µg/mL,> 512 µg/mL,2 µg/mL,8 µg/mL,0.5 µg/mL,1 µg/mL,> 512 µg/mL,> 512 µg/mL,0.5 µg/mL,–,–,–,–,–,–,–,–,256
CCOC(=O)c1cn(CC2CO2)c2c(F)cccc2c1=O (racemic),16 µg/mL,2 µg/mL,1 µg/mL,512 µg/mL,2 µg/mL,4 µg/mL,256 µg/mL,2 µg/mL,> 512 µg/mL,> 512 µg/mL,0.5 µg/mL,–,–,–,–,–,–,–,–,256
CCOC(=O)c1cn(CC(O)Cn2cncn2)c2c(F)cc(F)cc2c1=O (racemic),8 µg/mL,0.5 µg/mL,64 µg/mL,32 µg/mL,32 µg/mL,512 µg/mL,4 µg/mL,1 µg/mL,> 512 µg/mL,2 µg/mL,64 µg/mL,–,–,–,–,–,–,–,–,–
CCOC(=O)c1cn(CC(O)Cn2cncn2)c2ccc(C)cc2c1=O (racemic),4 µg/mL,4 µg/mL,128 µg/mL,4 µg/mL,2 µg/mL,64 µg/mL,2 µg/mL,64 µg/mL,> 512 µg/mL,16 µg/mL,256 µg/mL,–,–,–,–,–,–,–,–,–
CCOC(=O)c1cn(CC(O)Cn2cncn2)c2ccc(F)cc2c1=O (racemic),16 µg/mL,1 µg/mL,32 µg/mL,64 µg/mL,8 µg/mL,512 µg/mL,16 µg/mL,32 µg/mL,64 µg/mL,8 µg/mL,512 µg/mL,–,–,–,–,–,–,–,–,–
O=C(N[C@H](CO)[C@H](O)c1ccc([N+](=O)[O-])cc1)C(Cl)Cl [CHLORAMPHENICOL],32 µg/mL,32 µg/mL,> 512 µg/mL,32 µg/mL,16 µg/mL,> 512 µg/mL,32 µg/mL,16 µg/mL,> 512 µg/mL,8 µg/mL,> 512 µg/mL,–,–,–,–,–,–,–,–,–
OC(Cn1cncn1)(Cn1cncn1)c1ccc(F)cc1F [FLUCONAZOLE],> 512 µg/mL,> 512 µg/mL,1 µg/mL,> 512 µg/mL,> 512 µg/mL,16 µg/mL,> 512 µg/mL,> 512 µg/mL,8 µg/mL,> 512 µg/mL,256 µg/mL,–,–,–,–,–,–,–,–,–
CCn1cc(C(=O)O)c(=O)c2cc(F)c(N3CCNCC3)cc21 [NORFLOXACIN],16 µg/mL,4 µg/mL,> 512 µg/mL,4 µg/mL,8 µg/mL,> 512 µg/mL,1 µg/mL,0.5 µg/mL,> 512 µg/mL,2 µg/mL,> 512 µg/mL,–,–,–,–,–,–,–,–,–
